Laboratory results from US10639287B2, “Compounds for the treatment of mitochondrial diseases” (UNIVERSITE PARIS-SUD, priority 2014, dated 2020).

Columns and labels:
[1] = system: yeast cells expressing the wild-type MIP1 gene or the mutated mip1^G651S gene; experiment: Respiration (O2 consumption) of yeast cells, HANSATECH electrode; format: cell-based, Saccharomyces cerevisiae; conditions: 32 μM vs DMSO
Description: The respiration rate is the amount of oxygen consumed per unit of time and biological material. It reflects the activity of the oxidative metabolism of the cells.
Oxygen consumption was measured on whole cells using a HANSATECH electrode. The yeast cells expressing the wild-type MIP1 gene or the mutated mip1^G651S gene were cultured for 7-8 generations in a YPE medium (1% Yeast Extract, 0.5% Bacto Peptone, 2% Ethanol) supplemented with DMSO or 32 μM clofilium tosylate at 28° C. with stirring. A volume corresponding to a total of 60 units of DO600 of each culture was centrifuged for 5 min at 3000 g. The pellet was resuspended in YPE in order to have 6.10^5 cells/μl. 50 μL, that is to say 3.10^7 cells, were introduced into the measuring chamber of the HANSATECH electrode, which was maintained at 28° C. The O2 consumption was observed and recorded in real time. The O2 consumption rate was calculated from the linear part of the O2 consumption curve.

[2] = system: polg-1(ok1458Δ/+) strain; experiment: Non-toxic concentration (MIC) in nematode, larval development over 4 days, polg-1 mutated line; format: in vivo, Caenorhabditis elegans; conditions: 1 μM to 50 μM
Description: A series of NGM dishes containing clofilium tosylate at concentrations of 1 μM, 5 μM, 10 μM, 50 μM, 100 μM or 200 μM were prepared (three dishes for each concentration). Between 30 and 40 synchronised L1 larvae of the wild-type N2 BRISTOL line or mutated VC1224 line (polg-1(ok1458Δ/+)/mT1 II; +/mT1 [dpy-10(el28)] II), these being nematodes carrying a heterozygous deletion of 2149 bp in the sequence encoding the polg-1 gene, were deposited on each of these dishes.

[3] = system: complex I in neuronal cybrids derived from a MELAS patient (m.3243A>G tRNA^Leu mutation); experiment: Ratio of complex I/citrate synthase activities in MELAS neuronal cybrids; format: cell-based, human; conditions: 300 nM, 48 hours
Description: The mutant MELAS neuronal transmitochondrial line, which is the result of the fusion of the immortalised neuoroblastoma parental line SHSY-5Y with fibroblasts carrying the mutation m.3243A>G, was created in the laboratory of Prof. Procaccio.
Neuronal cybrid lines carrying the MELAS mutation and the parental control line were grown in sterile culture flasks and incubated at 37° C. with 5% CO2 in a medium composed of DMEM with 1.5 g/L glucose, 2 mM L-glutamine and supplemented with 10% foetal bovine serum as well as uridine (5 μg/ml) and pyruvate (10 μg/mL). […]
The MELAS neuronal cybrid line carrying the mutation seemingly in the homoplasmic state (i.e. reaching almost 100% MELAS mutation) and the SHSY-5Y parental control line were used for measurements of enzyme activities. […] These cell pellets were then analysed by spectrophotometry with measurement of the different mitochondrial biochemical activities, particularly the activity of citrate synthase and the activity of complex I of the respiratory chain. […]
The enzymatic activities were measured according to the protocol described in Medjda et al, 2009 (Medja F, Allouche S, Frachon P, Jardel C, Malgat M, Mousson de Camaret B, Slama A, Lunardi J, Mazat J P, Lombès A. Development and implementation of standardized respiratory chain spectrophotometric assays for clinical diagnosis. Mitochondrion. 2009 September; 9(5):331-9).

CCCCCCC[N+](CC)(CC)CCCCc1ccc(Cl)cc1.Cc1ccc(S(=O)(=O)[O-])cc1 [clofilium tosylate]
respiration of yeast cells (O2 consumption) [1]: breathed better | larval development [2]: developed similarly | activity of complex I (ratio complex I/citrate synthase) [3]: increased
